The values that follow come from patent US20090123954A1, “MULTICOLOR BIOLUMINESCENT VISUALIZATION PROBE SET, OR SINGLE-MOLECULE-FORMAT MULTICOLOR BIOLUMINESCENT VISUALIZATION PROBE” (National Institute of Advanced Industrial Science and …, priority 2007, published 2009).

Read-outs that look alike come from different tables or passages of the source. Ends that are not written are not given here.

Assay [1] has as its target T1, ER LBD (Homo sapiens, UniProt P03372).
T1 sequence (P03372 305-550): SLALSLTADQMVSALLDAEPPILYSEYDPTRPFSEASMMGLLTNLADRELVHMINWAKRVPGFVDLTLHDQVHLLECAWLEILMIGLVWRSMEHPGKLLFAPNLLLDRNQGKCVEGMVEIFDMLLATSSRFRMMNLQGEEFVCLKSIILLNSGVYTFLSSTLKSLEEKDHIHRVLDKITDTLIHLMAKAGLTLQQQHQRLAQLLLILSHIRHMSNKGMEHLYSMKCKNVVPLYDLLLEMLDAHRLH
In words: Ligand sensitivity of various cell lines carrying pSimer-R2 (red luminescence). The conditions noted are these: pSimer-R2 in HeLa, COS-7, NIH 3T3 and MCF-7 cells; 20 minutes stimulation; each cell line.

For assay [2], the target named is T2, ER LBD (Homo sapiens, UniProt P03372).
T2 sequence (P03372 305-550) 1: T1 sequence (P03372 305-550)
T2 sequence (P03372 305-550) 2: T1 sequence (P03372 305-550)
Put plainly: Estrogenicity score in COS-7 cells cotransfected with pSimer-R2 and pSimer-G4. Details: cDNAs of ER LBD (305-550 AA) and phosphorylation-recognition domain of Src (SH2) were amplified by PCR; expressed in transfected cells; host or cells: COS-7. It counts as cell-based. Here is the method: A COS-7 cells carrying both pSimer-R2 and pSimer-G4 were simulated with ligands for 20 minutes, and spectrum of luminescence emitted as a result with all wavelengths was observed (FIG. 11). […] The term genomic signal used herein refers to an intracellular signal involved in conventional protein expression in the nucleus. On the other hand, the term non-genomic signal means an intracellular signal not accompanying conventional protein expression. Typically, this is the general classification of intracellular signal transductions.
Further, from ratio of luminescence intensities between red signal (610 nm) and green signal (540 nm) induced by a ligand, it is possible to show numerically whether the measured ligand tends to genomic activity (also referred to as agonistic activity herein) or nongenomic activity (also referred to as antagonistic activity herein).

In assay [3] the target is T2, ER LBD. In words: Estrogenicity score in COS-7 cells co-expressing pSimer-R2 and pSimer-G6.
Another assay concerns COS-7 cells. In words: Optimal LXXLL motif: ligand sensitivity of COS-7 cells carrying pSimer-G plasmids. It counts as cell-based, African Green Monkey. The following applies: E2 or OHT for 20 minutes, compared among six pSimer-G plasmids. How it is done: As shown in the above (Table 1), six kinds of LXXLL motifs as those can be applied to each of […] backbones were prepared, and introduced into […]. Ligand sensitivity of COS-7 cells carrying either one of the six kinds of plasmids was measured (FIG. 8). […] Next, spectrum from the cells carrying […]6 with all wavelengths was measured, provided ligand was present and absent (FIG. 9).

The target in assay [4] is T1, ER LBD.
Assay [5] has as its target T1, ER LBD. This is another data set of the same source.
The target in assay [6] is T1, ER LBD. This is another data set of the same source.
Where [7] appears, read: [variation of luminescence intensity at 540 nm]/[variation at 610 nm], COS-7 cells, pSimer-R2 + pSimer-G4, 20 minutes stimulation.
Where [8] appears, read: [variation of luminescence intensity at 540 nm]/[variation at 610 nm], COS-7 cells, pSimer-R2 + pSimer-G6, 20 minutes stimulation.

Turning to `C[C@]12CC[C@@H]3c4ccc(O)cc4C[C@@H](CCCCCCCCC[S+]([O-])CCCC(F)(F)C(F)(F)F)[C@H]3[C@@H]1CC[C@@H]2O` (stereo partly shown) [ICI, ICI182780], the “increase in luminescence intensity” value on ER LBD [1] is reported as “remarkable luminescence intensity”. The Estrogenicity score at ER LBD [2] (setting [7]) was 0.86; on ER LBD [3] (setting [8]), 1.08.

“pSimer-G6: green luminescent probe, Rip140 motif 946 VCNESLLLQKLVNFS 932 (also: within green luminescent probe)”: the “luminescence intensity ratio relative to control (S/N ratio)” value in the assay with COS-7 cells is “strongest luminescence intensity ratio relative to control”.

Turning to `CC(=O)[C@H]1CC[C@H]2[C@@H]3CCC4=CC(=O)CC[C@]4(C)[C@H]3CC[C@]12C` [progesterone], the Estrogenicity score on ER LBD [3] (setting [8]) is reported as 1.06.

Take 4-hydroxytamoxifen [OHT]: at ER LBD [1], the “increase in luminescence intensity” value was “remarkable luminescence intensity”. On ER LBD [4], the “time of peak luminescence intensity after stimulation” value is 15 min. The “concentration at which luminescence intensity peaked” value at ER LBD [5] and on ER LBD [6] was “about 10^−5 M” in each case. Moreover, the Estrogenicity score on ER LBD [2] came to 0.62; at ER LBD [3], 0.38.

On to `C[C@]12CC[C@H]3[C@@H](CCC4=CC(=O)CC[C@@]43C)[C@@H]1CC[C@@H]2O` [T, testosterone], for which the Estrogenicity score at ER LBD [2] (setting [7]) and at ER LBD [3] (setting [8]) was 1.07 throughout.
